# Measurements published in patent publication US8703790B2, “Bis [O-(14-benzoylaconine-8-yl)] esters” (priority 2008, dated 2014).
# Legend:
# [1] = tested on: A549 (lung cancer); experiment: In vitro cytotoxicity test (MTT) against human tumour cell line A549; type: cell-based; conditions: A549, 24 h contact, 48 h re-growth
# Method: (§1) Human tumour cell lines A549 (lung cancer), HCT-15 (colon cancer) and MCF-7 (breast cancer) have been obtained from the Developmental Therapeutics Program of the National Cancer Institute (Rockville, Md., USA). Cells were routinely grown with RPMI 1640 medium supplemented with 10% foetal calf serum, both obtained from Biochrom AG (Berlin, Germany). They were grown on Petri dishes (Nunc, Denmark) at 37° C. in a humidified atmosphere containing 5% CO2. Cells were replicated every 4 days and the medium changed once in-between.
# (§2) Cytotoxicity has been evaluated on exponentially growing cells grown for 24 h in presence of the compounds to be tested. Briefly, 4000 cells were seeded in 96-well plates with 200 μL of complete medium; 24 hours later the medium was supplemented with a series of different concentrations of compounds and the contact maintained for 24 h. Compounds were dissolved in pure water and sterilised using polycarbonate membrane filters of 0.22 μm (Millipore, Molsheim, France). The cells were then allowed to re-grow for 48 hours; viable and metabolically active cells were quantitatively estimated by coloration with the MTT dye (1-(4,5-dimethylthyazol-2-yl)-3,5-diphenylformazan), Sigma-Aldrich Chimie, Saint-Quentin-Fallavier, France). The amount of substance allowing a 50% decrease in cell numbers is indicative of the cytotoxicity and represents the IC50 of compound.
# [2] = tested on: HCT-15 (colon cancer); experiment: In vitro cytotoxicity test (MTT) against human tumour cell line HCT-15; type: cell-based; conditions: HCT-15, 24 h contact, 48 h re-growth
# Method: as §1, §2
# [3] = tested on: MCF-7 (breast cancer); experiment: In vitro cytotoxicity test (MTT) against human tumour cell line MCF-7; type: cell-based; conditions: MCF-7, 24 h contact, 48 h re-growth
# Method: as §1, §2
# [4] = tested on: HTC-15 (colon cancer), A549 (lung cancer), MCF-7 (breast cancer); conditions: HTC-15, A549, MCF-7; publication A. Chodoeva et al.; read-out: IC50 in these three cell lines; cited from earlier work
# [5] = tested on: A549; conditions: A549, NCI data base values; cited from earlier work
# [6] = tested on: HCT-15; conditions: HCT-15, NCI data base values; cited from earlier work
# [7] = tested on: MCF-7; conditions: MCF-7, NCI data base values; cited from earlier work
# [8] = background statement; cited from earlier work
# [9] = tested on: mouse tumours; conditions: mouse tumours in vivo; cited from earlier work
# [10] = tested on: mitochondrial oxidoreductases; conditions: tumour cells; Picardo et al. 1985; cited from earlier work
SMILES,IC50 [1],IC50 [2],IC50 [3],IC50 [5],IC50 [6],IC50 [7],also measured
"CCN1CC2(COC)C(O)CC(OC)C34C5CC6(O)C(OC)C(O)C(OC(=O)CCCCCCCC(=O)O)(C5C6OC(=O)c5ccccc5)C(C(OC)C23)C14 (stereo not shown) [8-O-azeloyl-14-benzoylaconine, reference compound]",16.8 µM,19.4 µM,10.3 µM,–,–,–,IC50 [4]: 10 to 18 µM
COc1cc([C@@H]2c3cc4c(cc3[C@@H](O[C@@H]3O[C@@H]5CO[C@@H](C)O[C@H]5[C@H](O)[C@H]3O)[C@H]3COC(=O)[C@H]23)OCO4)cc(OC)c1O [etoposide],–,–,–,3.61 µM,17.6 µM,5.73 µM,–
CCN1C[C@]2(COC)[C@H](O)C[C@H](OC)[C@]34C1[C@H]([C@H](OC)[C@H]23)[C@]1(O)[C@H]2[C@@H](O)[C@](O)(C[C@H]24)[C@@H](OC)[C@@H]1O [Aconine],–,–,–,–,–,–,antiproliferative activity [8]: devoid of antiproliferative activity
"O=c1[nH]cc(F)c(=O)[nH]1 [5-FU, fluorouracil]",–,–,–,2.11 µM,5.69 µM,1.75 µM,–
N.N.[Cl][Pt][Cl] [cisplatin],–,–,–,3.08 µM,7.21 µM,3.01 µM,–
"CCN1C[C@]2(COC)[C@H](O)C[C@H](OC)[C@]34C1[C@H]([C@H](OC)[C@H]23)[C@]1(OC(=O)CCCCCCCC(=O)O[C@]23[C@H]5[C@@H](OC(=O)c6ccccc6)[C@](O)(C[C@H]5[C@@]56C7[C@@H]2[C@H](OC)[C@@H]5[C@](COC)(CN7CC)[C@H](O)C[C@@H]6OC)[C@@H](OC)[C@@H]3O)[C@H]2[C@@H](OC(=O)c3ccccc3)[C@](O)(C[C@H]24)[C@@H](OC)[C@@H]1O [ADD, bis[O-(14-benzoylaconine-8-yl)]-azelate]",19.1 µM,22 µM,15.5 µM,–,–,–,–
N[C@@H](Cc1ccc(N(CCCl)CCCl)cc1)C(=O)O [mephalan],–,–,–,28.7 µM,39.4 µM,11.1 µM,–
"O=C(O)CCCCCCCC(=O)O [Azelaic acid, azelaic acid]",–,–,–,–,–,–,antitumour activity [9]: total absence of antitumour activity; inhibition of mitochondrial oxidoreductases [10]: inhibitor of mitochondrial oxidoreductases
"CCN1C[C@]2(COC)[C@H](O)C[C@H](OC)[C@]34C1[C@H]([C@H](OC)[C@H]23)[C@]1(OC(=O)CCCCCC(=O)O[C@]23[C@H]5[C@@H](OC(=O)c6ccccc6)[C@](O)(C[C@H]5[C@@]56C7[C@@H]2[C@H](OC)[C@@H]5[C@](COC)(CN7CC)[C@H](O)C[C@@H]6OC)[C@@H](OC)[C@@H]3O)[C@H]2[C@@H](OC(=O)c3ccccc3)[C@](O)(C[C@H]24)[C@@H](OC)[C@@H]1O [PDD, bis[O-(14-benzoylaconine-8-yl)]-pimelate]",3.76 µM,3.76 µM,7.5 µM,–,–,–,–
